The values below are quoted from earlier work in article PMC7693160 (Pharmaceutics, 2020).

As usually defined, the Ki is the equilibrium dissociation constant of an inhibitor or competing ligand from its target.

Some test systems named below: CYP2C9 3*/3*; CYP2C9 1*/1*; CYP2C9 1*/3*.
Parameters in all cases: method as in Kumar et al. 43
Holding throughout (conditions): ref Kumar et al. 43, read-out: Perpetrator in vitro Ki; cited from earlier work

`OC(Cn1cncn1)(Cn1cncn1)c1ccc(F)cc1F` [Fluconazole, fluconazole]: the Ki was 23 µM in the series with CYP2C9 3*/3*, 11 µM with CYP2C9 1*/1* and 17 µM in the series with CYP2C9 1*/3*.
